Laboratory results from the kinase profiling compilation of Christmann-Franck et al. (2016).

Assays:
Assay in all cases: radiometric filter-binding kinase assay
[1] = target: MAPKAPK2 (human) (UniProt P49137)
[2] = target: MINK1 (human) (UniProt Q8N4C8)
[3] = target: MKNK1 (human) (UniProt Q9BUB5)
[4] = target: MKNK2 (human) (UniProt Q9HBH9)
[5] = target: NEK2 (human) (UniProt P51955)
[6] = target: NTRK1 (human) (UniProt P04629)
[7] = target: PHKG1 (human) (UniProt Q16816)
[8] = target: PIM2 (human) (UniProt Q9P1W9)
[9] = target: PKN2 (human) (UniProt Q16513)
[10] = system: PRKAA1 or PRKAA2 (rat); details: accession and sequence are those of the human protein
[11] = target: PRKACA (human) (UniProt P17612)
[12] = target: PRKCA (human) (UniProt P17252)
[13] = target: RPS6KA1 KD1 KD2 (human) (UniProt Q15418)
[14] = target: SRC (human) (UniProt P12931)
[15] = target: STK11 CAB39 STRADA (human) (UniProt Q9Y376+Q7RTN6+Q15831)
[16] = target: STK3 (human) (UniProt Q13188)
[17] = target: YES1 (human) (UniProt P07947)

PIM2 (human), sequence (Q9P1W9 whole entry, looked up): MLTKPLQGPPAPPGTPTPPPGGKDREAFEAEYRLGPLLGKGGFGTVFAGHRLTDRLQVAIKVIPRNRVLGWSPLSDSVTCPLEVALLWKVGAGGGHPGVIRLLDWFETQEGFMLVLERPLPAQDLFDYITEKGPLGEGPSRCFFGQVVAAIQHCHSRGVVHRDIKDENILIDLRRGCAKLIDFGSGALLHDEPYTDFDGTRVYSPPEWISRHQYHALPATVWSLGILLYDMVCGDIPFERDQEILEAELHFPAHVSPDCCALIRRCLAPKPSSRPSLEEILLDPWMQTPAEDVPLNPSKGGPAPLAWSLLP
NTRK1 (human), sequence (P04629 whole entry, looked up): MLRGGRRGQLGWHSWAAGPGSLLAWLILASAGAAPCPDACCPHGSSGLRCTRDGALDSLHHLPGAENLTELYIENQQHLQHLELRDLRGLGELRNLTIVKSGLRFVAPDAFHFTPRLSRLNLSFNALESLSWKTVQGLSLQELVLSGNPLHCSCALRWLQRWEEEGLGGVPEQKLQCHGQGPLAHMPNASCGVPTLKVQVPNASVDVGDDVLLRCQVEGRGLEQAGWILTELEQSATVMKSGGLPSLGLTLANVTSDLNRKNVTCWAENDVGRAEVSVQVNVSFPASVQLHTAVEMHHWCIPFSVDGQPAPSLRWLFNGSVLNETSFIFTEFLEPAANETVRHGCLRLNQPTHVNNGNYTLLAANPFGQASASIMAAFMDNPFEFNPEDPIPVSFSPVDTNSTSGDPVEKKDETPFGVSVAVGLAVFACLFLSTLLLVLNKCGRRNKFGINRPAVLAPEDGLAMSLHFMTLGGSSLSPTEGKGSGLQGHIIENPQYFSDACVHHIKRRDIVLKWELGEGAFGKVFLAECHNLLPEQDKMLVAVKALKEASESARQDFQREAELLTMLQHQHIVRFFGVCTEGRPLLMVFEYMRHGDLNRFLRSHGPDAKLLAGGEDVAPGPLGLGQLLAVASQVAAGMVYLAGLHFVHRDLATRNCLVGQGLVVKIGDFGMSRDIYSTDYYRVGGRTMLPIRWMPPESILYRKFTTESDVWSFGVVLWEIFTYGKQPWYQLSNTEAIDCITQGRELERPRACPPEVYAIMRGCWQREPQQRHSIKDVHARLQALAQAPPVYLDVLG
MINK1 (human), sequence (Q8N4C8 whole entry, looked up): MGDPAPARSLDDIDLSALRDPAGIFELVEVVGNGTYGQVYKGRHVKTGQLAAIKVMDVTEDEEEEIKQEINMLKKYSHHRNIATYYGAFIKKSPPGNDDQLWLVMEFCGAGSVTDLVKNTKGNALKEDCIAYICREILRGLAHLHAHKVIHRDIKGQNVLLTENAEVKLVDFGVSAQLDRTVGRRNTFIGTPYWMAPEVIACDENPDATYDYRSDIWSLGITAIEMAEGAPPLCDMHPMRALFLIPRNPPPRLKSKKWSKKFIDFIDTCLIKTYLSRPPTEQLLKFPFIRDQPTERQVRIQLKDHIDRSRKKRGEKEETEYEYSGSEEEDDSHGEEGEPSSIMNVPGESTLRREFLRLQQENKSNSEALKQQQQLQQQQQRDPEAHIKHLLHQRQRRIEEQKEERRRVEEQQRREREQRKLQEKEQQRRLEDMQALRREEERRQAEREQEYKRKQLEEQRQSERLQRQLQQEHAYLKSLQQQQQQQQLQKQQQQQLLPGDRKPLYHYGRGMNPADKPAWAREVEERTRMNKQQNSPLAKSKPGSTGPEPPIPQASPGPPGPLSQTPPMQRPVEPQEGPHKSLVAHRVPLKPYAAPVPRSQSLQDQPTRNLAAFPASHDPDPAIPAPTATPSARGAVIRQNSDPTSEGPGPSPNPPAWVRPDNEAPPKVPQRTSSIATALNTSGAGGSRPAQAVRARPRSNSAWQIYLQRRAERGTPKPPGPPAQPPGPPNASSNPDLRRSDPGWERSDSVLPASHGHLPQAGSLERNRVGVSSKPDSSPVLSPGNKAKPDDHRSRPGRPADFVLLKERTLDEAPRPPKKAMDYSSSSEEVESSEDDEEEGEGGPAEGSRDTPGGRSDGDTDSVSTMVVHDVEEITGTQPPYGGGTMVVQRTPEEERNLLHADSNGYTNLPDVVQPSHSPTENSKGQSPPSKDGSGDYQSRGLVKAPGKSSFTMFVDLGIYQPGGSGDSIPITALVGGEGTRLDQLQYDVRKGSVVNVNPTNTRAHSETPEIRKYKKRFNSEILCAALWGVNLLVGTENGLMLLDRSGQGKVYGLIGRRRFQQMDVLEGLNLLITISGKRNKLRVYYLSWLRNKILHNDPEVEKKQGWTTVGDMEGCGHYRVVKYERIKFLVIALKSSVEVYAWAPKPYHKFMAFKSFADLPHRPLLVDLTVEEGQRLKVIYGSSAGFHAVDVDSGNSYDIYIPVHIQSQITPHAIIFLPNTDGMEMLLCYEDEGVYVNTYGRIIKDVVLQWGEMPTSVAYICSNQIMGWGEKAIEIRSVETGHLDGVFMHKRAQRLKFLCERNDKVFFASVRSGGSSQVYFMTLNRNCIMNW
STK3 (human), sequence (Q13188 whole entry, looked up): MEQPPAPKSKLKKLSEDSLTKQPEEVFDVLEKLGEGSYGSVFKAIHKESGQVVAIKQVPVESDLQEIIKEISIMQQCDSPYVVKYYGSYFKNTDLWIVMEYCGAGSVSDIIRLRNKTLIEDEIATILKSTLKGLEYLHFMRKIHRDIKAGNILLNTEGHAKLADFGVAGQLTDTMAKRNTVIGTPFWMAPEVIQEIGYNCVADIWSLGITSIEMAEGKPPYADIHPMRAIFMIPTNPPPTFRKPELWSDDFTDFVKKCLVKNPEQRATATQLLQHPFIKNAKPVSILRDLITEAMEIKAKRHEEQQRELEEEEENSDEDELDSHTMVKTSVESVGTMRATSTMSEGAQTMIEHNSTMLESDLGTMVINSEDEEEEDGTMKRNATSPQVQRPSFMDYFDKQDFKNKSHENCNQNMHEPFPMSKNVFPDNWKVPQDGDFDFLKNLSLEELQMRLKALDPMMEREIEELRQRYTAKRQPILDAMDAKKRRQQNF
SRC (human), sequence (P12931 whole entry, looked up): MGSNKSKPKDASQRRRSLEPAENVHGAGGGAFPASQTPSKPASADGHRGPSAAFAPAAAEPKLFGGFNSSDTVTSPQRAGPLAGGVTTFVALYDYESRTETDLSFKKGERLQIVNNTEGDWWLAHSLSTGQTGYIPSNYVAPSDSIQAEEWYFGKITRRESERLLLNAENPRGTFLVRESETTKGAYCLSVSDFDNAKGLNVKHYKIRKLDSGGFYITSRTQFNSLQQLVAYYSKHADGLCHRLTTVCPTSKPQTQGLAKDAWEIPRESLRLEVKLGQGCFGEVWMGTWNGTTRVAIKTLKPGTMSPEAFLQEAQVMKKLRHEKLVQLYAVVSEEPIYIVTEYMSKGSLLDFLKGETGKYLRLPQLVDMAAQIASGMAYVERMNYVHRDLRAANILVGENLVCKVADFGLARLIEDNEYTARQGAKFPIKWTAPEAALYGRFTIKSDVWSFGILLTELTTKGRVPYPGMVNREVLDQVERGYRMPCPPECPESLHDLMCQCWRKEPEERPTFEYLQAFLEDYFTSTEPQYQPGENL
PHKG1 (human), sequence (Q16816 whole entry, looked up): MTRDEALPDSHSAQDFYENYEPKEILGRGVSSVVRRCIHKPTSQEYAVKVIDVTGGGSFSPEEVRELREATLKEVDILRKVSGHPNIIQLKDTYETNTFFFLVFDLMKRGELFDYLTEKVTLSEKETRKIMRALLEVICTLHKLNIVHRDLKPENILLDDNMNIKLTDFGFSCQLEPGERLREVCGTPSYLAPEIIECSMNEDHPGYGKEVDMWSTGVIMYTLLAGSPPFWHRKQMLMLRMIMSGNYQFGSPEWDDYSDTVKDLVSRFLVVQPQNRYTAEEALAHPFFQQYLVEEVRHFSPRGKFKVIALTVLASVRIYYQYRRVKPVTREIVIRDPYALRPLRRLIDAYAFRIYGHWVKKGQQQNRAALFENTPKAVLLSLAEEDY
MAPKAPK2 (human), sequence (P49137 whole entry, looked up): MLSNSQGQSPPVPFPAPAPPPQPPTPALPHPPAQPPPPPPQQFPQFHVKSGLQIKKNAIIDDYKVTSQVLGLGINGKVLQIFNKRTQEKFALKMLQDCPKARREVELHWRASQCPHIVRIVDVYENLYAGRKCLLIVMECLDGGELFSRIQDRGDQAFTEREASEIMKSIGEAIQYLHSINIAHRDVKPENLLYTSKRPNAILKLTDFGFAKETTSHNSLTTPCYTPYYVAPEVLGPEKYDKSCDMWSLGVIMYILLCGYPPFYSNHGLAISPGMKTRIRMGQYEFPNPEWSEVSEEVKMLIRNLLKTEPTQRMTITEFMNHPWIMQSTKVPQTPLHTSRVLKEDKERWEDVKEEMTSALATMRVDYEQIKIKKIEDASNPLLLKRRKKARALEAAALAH

Work on `O=C(Nc1nc2cc(C(F)(F)F)cc(NC3CC3)n2n1)c1cccnc1` yielded a residual activity ([1]; compound 0.01 µM) of 99%, a residual activity ([1]; compound 0.1 µM) of 102% and a residual activity ([1]; compound 1.0 µM) of 99%. It also gave a residual activity ([2]; compound 0.01 µM) of 125%, a residual activity ([2]; compound 0.1 µM) of 113% and a residual activity ([2]; compound 1.0 µM) of 120%. It also gave a residual activity ([3]; compound 0.01 µM) of 94%, a residual activity ([3]; compound 0.1 µM) of 99% and a residual activity ([3]; compound 1.0 µM) of 98%. The residual activity ([4]; compound 0.01 µM) was 95%, the residual activity ([4]; compound 1.0 µM) was 91% and the residual activity ([5]; compound 0.01 µM) was 97%. The residual activity ([5]; compound 0.1 µM) was 97%, the residual activity ([5]; compound 1.0 µM) was 96% and the residual activity ([6]; compound 0.01 µM) was 80%. For the same molecule, the residual activity ([6]; compound 0.1 µM) was 83%, the residual activity ([6]; compound 1.0 µM) was 81% and the residual activity ([7]; compound 0.01 µM) was 104%. The residual activity ([7]; compound 0.1 µM) was 115%, the residual activity ([7]; compound 1.0 µM) was 92% and the residual activity ([8]; compound 0.01 µM) was 106%. It also gave a residual activity ([8]; compound 0.1 µM) of 109%, a residual activity ([8]; compound 1.0 µM) of 108% and a residual activity ([9]; compound 0.01 µM) of 77%. It also gave a residual activity ([9]; compound 0.1 µM) of 104%, a residual activity ([9]; compound 1.0 µM) of 75% and a residual activity ([10]; compound 0.01 µM) of 108%. For the same molecule, the residual activity ([10]; compound 0.1 µM) was 93%, the residual activity ([10]; compound 1.0 µM) was 108% and the residual activity ([11]; compound 0.01 µM) was 98%. It also gave a residual activity ([11]; compound 0.1 µM) of 99%, a residual activity ([11]; compound 1.0 µM) of 88% and a residual activity ([12]; compound 0.01 µM) of 87%. It also gave a residual activity ([12]; compound 0.1 µM) of 89%, a residual activity ([12]; compound 1.0 µM) of 94% and a residual activity ([13]; compound 0.01 µM) of 99%. It also gave a residual activity ([13]; compound 0.1 µM) of 102%, a residual activity ([13]; compound 1.0 µM) of 65% and a residual activity ([14]; compound 0.01 µM) of 100%. For the same molecule, the residual activity ([14]; compound 0.1 µM) was 107%, the residual activity ([14]; compound 1.0 µM) was 102% and the residual activity ([15]; compound 0.01 µM) was 107%. It also gave a residual activity ([15]; compound 0.1 µM) of 132%, a residual activity ([15]; compound 1.0 µM) of 105% and a residual activity ([16]; compound 0.01 µM) of 99%. For the same molecule, the residual activity ([16]; compound 0.1 µM) was 116%, the residual activity ([16]; compound 1.0 µM) was 93% and the residual activity ([17]; compound 0.01 µM) was 81%. It also gave a residual activity ([17]; compound 0.1 µM) of 87% and a residual activity ([17]; compound 1.0 µM) of 74%.
